These results are taken from the OPERA property sets (Mansouri et al. 2018).

Where a SMILES comes first, the peptide text is derived from it. [ ]: non-standard residue; d: D form. Orn = NCCC[CH](N)C(=O)O

As usually defined, the logP is a log measure of how a compound divides between an organic and an aqueous phase. A low value points to a more hydrophilic compound. The molecule `CCOC(=O)c1ccc(OCC(OC(=S)n2ccnc2)C(C)(C)C)cc1` (stereo unspecified) came in with a logP of 4.77.
As for `Cc1n[nH]c(C(=O)NCc2ccccc2)c1[N+](=O)[O-]`, the figure is 1.49.
The value for `CNC(=NC#N)NCCSCc1nccs1` was 0.89; that for `CN(C)N=Nc1ccc(S(C)(=O)=O)cc1` was 1.59.
As for `COCc1ccc(O)c2ncccc12`, the figure is 1.78; as for `CC(C)(C)NCC(O)COCCCc1ccccc1` (stereo unspecified), 2.58; as for `CNC(=C[N+](=O)[O-])NCCSCc1nccs1`, -0.15.
With `C=CCn1cccn1`, the logP was 0.35.
As for `CCc1cccc(NC(=O)Cc2ccccc2)c1`, the logP worked out at 3.47.
The value for `Oc1cccc(Cl)n1` was 0.93.
As for `CCN(CC)C(=O)COC(=O)c1ccccc1O`, the figure is 1.99; as for `CC(=O)OC1CC(OC2CCC3(C)C(CCC4C3CC(O)C3(C)C(C5=CC(=O)OC5)CCC43O)C2)OC(C)C1OC1CC(O)C(OC2CC(O)C(O)C(C)O2)C(C)O1` (stereo unspecified), 1.71; as for `CS(=O)(=O)N(c1ccccc1[N+](=O)[O-])S(C)(=O)=O`, 0.81.
As to `CCN(CC)Cc1cccc(C(=O)Nc2c(C)cccc2C)c1`, the logP amounted to 3.09.
As for `Cc1ccc(Cl)c(Cl)c1`, the figure is 3.95; as for `Cc1nc([N+](=O)[O-])c(Cl)n1C`, 0.34.
The value for `O=C(Cn1ccnc1[N+](=O)[O-])NCCCCO` was -0.74; that for `CN(C)CCC[N+]1([O-])c2ccccc2Sc2ccccc21` was 1.9.
The value for `CN(C)c1ccc2c(c1)C(=O)N(OS(C)(=O)=O)C2=O` was 1.65; that for `CC1OC(OC2C(C)OC(OC3C(C)OC(OC4CCC5(C)C(CCC6C5CCC5(C)C(C7=CC(=O)OC7)C(OC=O)CC65OC=O)C4)CC3OC=O)CC2OC=O)CC(O)C1OC=O` (stereo unspecified) was 3.16; that for `Clc1cc2c(c(Cl)c1Cl)Oc1ccc(Cl)c(Cl)c1O2` was 6.74.
As for `NC(Cc1cccc2ccccc12)C(=O)O` (stereo unspecified), the log partition coefficient (logP) was -0.22.
As for `O=c1cc[nH]cc1`, the figure is -1.3.
As for `C#CCOc1c(Cl)cc(NC=NOCCC)cc1Cl`, the figure is 4; as for `O=C(Cn1c(=O)sc2ccc(Cl)cc21)N1CCN(CCOS(=O)(=O)O)CC1`, -1.47.
The molecule `CCCCNC(=O)CNC(=O)C=[N+]=[N-]` registered a logP of 0.37.
The value for `O=C(Cn1cnnn1)N[C@@H]1C(=O)N2C(C(=O)O)=C(CSc3nncs3)CS[C@H]12` was -0.67.
The value for `CCCC(=O)OCn1ncc2c(=O)[nH]cnc21` was 0.6; that for `CC(C)(C)C(=O)OCn1cc2c(=O)[nH]cnc2n1` was 0.79.
As to `NC(=O)c1cc2ccccc2o1`, the log partition coefficient (logP) stood at 1.54.
With `O=c1cc2ccccc2n[nH]1`, the lipophilicity (logP) turned out to be 0.68.
In turn, `O=Cn1c2c(c3ccccc31)CCNC2` gave a log partition coefficient (logP) of 0.26.
The molecule `C#CCOc1c(Cl)cc(NC=NOCC=CCl)cc1Cl` gave a lipophilicity (logP) of 3.9.
The value for `CNN=Nc1ccc(C(N)=O)cc1` was 0.47; that for `CCCn1c(=O)c2[nH]c(-c3ccc(S(=O)(=O)NCCN(C)C)cc3)nc2n(CCC)c1=O` was 3.32.
`Cc1cccc(C(=O)NN(C(=O)c2ccccc2Cl)C(C)(C)C)c1` had a logP of 3.11.
`CC(=O)N(CCO)c1c(I)c(C(=O)NC(CO)CO)c(I)c(C(=O)NC(CO)CO)c1I` gave a logP of -2.33.
The value for `O=[N+]([O-])c1nccn1CCN1CCCCC1` was 0.36; that for `CC(=O)Nc1ccnnc1` was -0.41.
Molecule `Cc1ncc([N+](=O)[O-])n1CCNC(=O)OC1CCCCC1` had a log partition coefficient (logP) of 2.01.
The value for `COC1CC(OC2CCC3(C=O)C4CCC5(C)C(C6=CC(=O)OC6)CCC5(O)C4CCC3(O)C2)OCC1O` (stereo unspecified) was 0.64; that for `NS(=O)(=O)c1cc(S(=O)(=O)c2ccc(CN3CCOCC3)cc2)cs1` was 0.98; that for `CCCC(=O)OC(C(=O)NC1C(=O)N2C(C(=O)O)=C(C)CSC12)c1ccccc1` (stereo unspecified) was 1.89.
As for `CC1(c2ccc(F)cc2)OC2CC3C4CCC5=CC(=O)CCC5C4CCC3(C)C2(C(=O)CO)O1` (stereo unspecified), the figure is 4.92; as for `CC(C)NCC(COc1cccc2ccccc12)OS(=O)(=O)O` (stereo unspecified), 1.16; as for `CC(=O)NC(Cc1ccccc1)C(=O)NC(CC(=O)O)C(=O)NC(CC(C)C)C(N)=O` (stereo not drawn) (Ac-Phe-Asp-Leu-NH2; configuration not given here), 0.39.
As for `Fc1ccc(SCc2ccc(CCCN3CCOCC3)cc2)cc1`, the figure is 3.51; as for `C[C@H]1OC(O[C@H]2[C@@H](O)CC(O[C@H]3[C@@H](O)CC(O[C@H]4CC[C@@]5(C)[C@H](CC[C@@H]6[C@@H]5CC[C@]5(C)[C@@H](C7=CC(=O)OC7)[C@@H](OC=O)C[C@]65O)C4)O[C@@H]3C)O[C@@H]2C)C[C@H](O)[C@@H]1O` (stereo partly specified), 2.04; as for `ClC(Cl)(Cl)c1nc(C(Cl)(Cl)Cl)nc(C(Cl)(Cl)Cl)n1`, 3.75.
For `CNc1nc(Cl)c(SC)c(N2CCN(C)CC2)n1`, the logP was determined as 2.99.
The value for `CC1=CCC2C(C1)c1c(O)cc(NS(C)(=O)=O)cc1OC2(C)C` (stereo unspecified) was 3.12; that for `CCC(C)NC(=O)C(=Cc1ccccc1)Cc1ccccc1` (stereo unspecified) was 3.99.
In the case of `CS(=O)(=O)c1ccc2ccccc2c1`, the lipophilicity (logP) turned out to be 1.74.
For the molecule `CCOc1ccc(C2(C(=O)OC)CC(F)(F)C2(F)F)cc1` (stereo unspecified), the logP worked out at 4.06.
As to `Cc1cccc(C)c1NC(=O)c1cccc(CN2CCCCC2)c1`, the logP is 3.47.
The value for `CCCCCCCC(=O)OC(C(=O)NC1C(=O)N2C(C(=O)O)=C(C)CSC12)c1ccccc1` (stereo unspecified) was 3.54; that for `CS(=O)(=O)ON1C(=O)c2ccc(N)cc2C1=O` was 0.8; that for `O=[N+]([O-])c1nccn1CCC(O)CO` (stereo unspecified) was -0.9.
As for `CNC(=O)C(Cc1ccc(O)cc1)NC(C)=O` (stereo unspecified), the figure is -0.32; as for `CCCCCCOC(=O)n1cc(F)c(=O)[nH]c1=O`, 2.04.
The value for `Nc1ncc(Cc2cccc(Cl)c2Cl)c(N)n1` was 2.81; that for `COCCOCC1COC(Cn2cncn2)(c2ccc(Cl)cc2Cl)O1` (stereo unspecified) was 2.03.
`COc1ccc(-n2ccc(=O)c(O)c2C)cc1` showed a logP of 1.27.
The value for `CCN1C(=O)C(=O)c2ccccc2C1=O` was 1.13; that for `CC(=O)NC(CCCN)C(=O)NC(Cc1ccccc1)C(N)=O` (stereo unspecified) was 0.41; that for `CC(=O)NC(CCCCN)C(=O)NC(CC(C)C)C(N)=O` (stereo not drawn) (Ac-Lys-Leu-NH2; configuration not given here) was -0.26.
Take `CCC(=O)C1(c2cccc(OC(=O)OC(C)C)c2)CCN(C)CC1`: the log partition coefficient (logP) was determined as 1.72.
The molecule `Cc1ccc(C(=O)COc2c(C(=O)c3ccc(Cl)c(C)c3Cl)c(C)nn2C)cc1` returned a logP of 4.69.
In the case of `CC(C)(C)C(=O)C(C#N)=NNc1cc(C(F)(F)F)cc(C(F)(F)F)c1`, the logP was 5.44.
`CCNc1nc(NC)nc(SC(F)F)n1` displayed a logP of 2.68.
Consider `CCOC(=O)C(CC)C(CO)Cc1cncn1C` (stereo unspecified), for which the logP worked out at 0.73.
For the molecule `CC(C)(C)C(=O)C(C#N)=NNc1cc(C(F)(F)F)ccc1Cl`, the log partition coefficient (logP) is 5.31.
The value for `Cc1nc([N+](=O)[O-])c(Br)n1C` was 0.44.
As for `CC1=C(C(=O)O)N2C(=O)C(NC(=O)C(OC(=O)C(C)C)c3ccccc3)C2SC1` (stereo unspecified), the figure is 2.05; as for `O=C(Cc1ccccc1)NCCNCC(O)COCc1ccccc1` (stereo unspecified), 1.45; as for `COc1c(O)cc2c(c1OC)-c1ccc(SC)c(=O)cc1C(NC(C)=O)CC2` (stereo unspecified), 1.43.
As for `CC(C)N(C=Nc1ccn(C2OC(CO)C(O)C2O)c(=O)n1)C(C)C` (stereo unspecified), the figure is 0.01; as for `O=[N+]([O-])c1ccc2c(O)cccc2c1`, 3.5; as for `Nc1nc(N)nc(C(Cl)(Cl)Cl)n1`, 1.24.
For the molecule `CCc1ncc([N+](=O)[O-])n1C`, the logP was 0.68.
As for `Nc1ccn(C2OC3COC2C3O)c(=O)n1` (stereo unspecified), the figure is -1.64.
In turn, `CCCN(C=Nc1ccn(C2OC(CO)C(O)C2O)c(=O)n1)CCC` (stereo unspecified) returned a lipophilicity (logP) of 0.24.
As for `CC(C)C(=O)NS(=O)(=O)c1ccc(C(F)(F)F)cc1N`, the figure is 2.56.
As to `CN(C)N=Nc1cccc(C(N)=O)c1`, the lipophilicity (logP) came to 1.3.
As for `CC(C)CN1C(=O)NC(=O)C(=O)C1=O`, the figure is 0.76; as for `COCCNC(=S)Cn1cnc([N+](=O)[O-])n1`, 0.25; as for `C#CCC(O)(c1cccnc1)c1ccc(Cl)cc1Cl` (stereo unspecified), 2.29.
For the molecule `CCN(CC)C(=O)c1cccc2c1C(=O)C(=O)N(CC)C2=O`, the logP came out at 0.78.
As for `C#CC1(OC(=O)C2=CN(C)C=CC2)CCC2C3CCC4=CC(=O)CCC4C3CCC21C` (stereo unspecified), the figure is 4.44; as for `OCC1CCC(n2cnc3cncnc32)O1` (stereo unspecified), -0.47; as for `CN(C)C(=O)COC(=O)c1cc(S(N)(=O)=O)c(Cl)cc1NCc1ccco1`, 1.18.
In turn, `CCC(C)C(NC(=O)C(CCCN)NC(C)=O)C(=O)NC(C(N)=O)C(C)C` (stereo not drawn) (Ac-[Orn]-Ile-Val-NH2; configuration not given here) registered a logP of -0.43.
`Cc1c(Cl)cccc1Cl` returned a log partition coefficient (logP) of 3.99.
Turning to `O=C1CC(Sc2ccncc2)N1` (stereo unspecified), the log partition coefficient (logP) came to 0.61.
For `CO[C@@]1(NC(=O)C(C(=O)O)c2ccc(O)cc2)C(=O)N2C(C(=O)O)=C(CSc3nnnn3C)CO[C@@H]21` (stereo partly specified), the log partition coefficient (logP) is -0.58.
As for `N#CC(C#N)=NNc1ccccc1C(F)(F)F`, the figure is 4.2; as for `CCCCCOc1ccccc1NC(=O)OCCN1CCCCC1`, 4.97.
The molecule `CCCCC(=O)OC(C(=O)NC1C(=O)N2C(C(=O)O)=C(C)CSC12)c1ccccc1` (stereo unspecified) showed a logP of 2.23.
Regarding `COc1cccc(C(=O)NP(=O)(N2CC2)N2CC2)c1`, the log partition coefficient (logP) was determined as 0.86.
On to `ON=Cc1nnc(-c2ccccc2)o1`, for which the log partition coefficient (logP) worked out at 2.03.
As for `COc1ccc2c(C)cc(=O)n3c(C)cc1c23`, the figure is 2.84; as for `CCCCCc1ccc(OCC(OC(=O)n2ccnc2)C(C)(C)C)cc1` (stereo unspecified), 5.26.
For `CCN(CC)CCSC(=NO)c1nonc1C`, the logP worked out at 1.4.
Molecule `CNC(=O)OCc1ccc(Cl)cc1` registered a logP of 2.42.
As for `Clc1ccc(Oc2nc(C(Cl)(Cl)Cl)nc(C(Cl)(Cl)Cl)n2)cc1`, the figure is 5.67; as for `CC1CC2C3CCC4=CC(=O)C=CC4(C)C3(F)C(O)CC2(C)C1(O)C(=O)NC(C)(C)C` (stereo unspecified), 3.2.
